Activity calls are given as the source filed them. No rule for the calls is given here.
Tested on: CCRIS mutagenicity, Ames/micronucleus/aberration tests
Experiment: CCRIS mutagenicity studies
[1] = Test System: AMES SALMONELLA TYPHIMURIUM, Strain/Indicator: TA98, Metabolic Activation: S-9, Method: STANDARD PLATE
[2] = Test System: AMES SALMONELLA TYPHIMURIUM, Strain/Indicator: TA100, Metabolic Activation: S-9, Method: STANDARD PLATE

Measured: mutagenic call

CCCCNC(=O)n1c(NC(=O)OC)nc2ccccc21
inactive: Test System: AMES SALMONELLA TYPHIMURIUM, Strain/Indicator: TA97, Metabolic Activation: HAMSTER, LIVER, S-9, AROCLOR 1254 (10%), Method: PREINCUBATION inactive; negative | Test System: AMES SALMONELLA TYPHIMURIUM, Strain/Indicator: TA97, Metabolic Activation: HAMSTER, LIVER, S-9, AROCLOR 1254 (30%), Method: PREINCUBATION inactive; negative | Test System: AMES SALMONELLA TYPHIMURIUM, Strain/Indicator: TA97, Metabolic Activation: NONE, Method: PREINCUBATION inactive; negative | Test System: AMES SALMONELLA TYPHIMURIUM, Strain/Indicator: TA97, Metabolic Activation: RAT, LIVER, S-9, AROCLOR 1254 (10%), Method: PREINCUBATION inactive; negative | Test System: AMES SALMONELLA TYPHIMURIUM, Strain/Indicator: TA97, Metabolic Activation: RAT, LIVER, S-9, AROCLOR 1254 (30%), Method: PREINCUBATION inactive; negative | Test System: AMES SALMONELLA TYPHIMURIUM, Strain/Indicator: TA97A, Metabolic Activation: NONE, Method: STANDARD PLATE inactive; negative | Test System: AMES SALMONELLA TYPHIMURIUM, Strain/Indicator: TA97A, Metabolic Activation: PLANT, HOMOGENATE, S-14, Method: STANDARD PLATE inactive; negative | Test System: AMES SALMONELLA TYPHIMURIUM, Strain/Indicator: TA97A, Metabolic Activation: S-9, Method: STANDARD PLATE inactive; negative | Test System: AMES SALMONELLA TYPHIMURIUM, Strain/Indicator: TA98, Metabolic Activation: HAMSTER, LIVER, S-9, 1254 (10%), Method: PREINCUBATION inactive; negative | Test System: AMES SALMONELLA TYPHIMURIUM, Strain/Indicator: TA98, Metabolic Activation: HAMSTER, LIVER, S-9, AROCLOR 1254 (30%), Method: PREINCUBATION inactive; negative | Test System: AMES SALMONELLA TYPHIMURIUM, Strain/Indicator: TA98, Metabolic Activation: NONE, Method: PREINCUBATION inactive; negative | Test System: AMES SALMONELLA TYPHIMURIUM, Strain/Indicator: TA98, Metabolic Activation: PLANT, HOMOGENATE, S-14, Method: STANDARD PLATE inactive; negative | Test System: AMES SALMONELLA TYPHIMURIUM, Strain/Indicator: TA98, Metabolic Activation: RAT, LIVER, S-9, AROCLOR 1254 (10%), Method: PREINCUBATION inactive; negative | Test System: AMES SALMONELLA TYPHIMURIUM, Strain/Indicator: TA98, Metabolic Activation: RAT, LIVER, S-9, AROCLOR 1254 (30%), Method: PREINCUBATION inactive; negative | Test System: AMES SALMONELLA TYPHIMURIUM, Strain/Indicator: TA98, Metabolic Activation: RAT, LIVER, S-9, AROCLOR 1254, Method: STANDARD PLATE inactive; negative | Test System: AMES SALMONELLA TYPHIMURIUM, Strain/Indicator: TA98, Metabolic Activation: RAT, LIVER, S-9, AROCLOR, Method: STANDARD PLATE inactive; negative | [1] inactive; negative | Test System: AMES SALMONELLA TYPHIMURIUM, Strain/Indicator: TA100, Metabolic Activation: HAMSTER, LIVER, S-9, AROCLOR 1254 (10%), Method: PREINCUBATION inactive; negative | Test System: AMES SALMONELLA TYPHIMURIUM, Strain/Indicator: TA100, Metabolic Activation: HAMSTER, LIVER, S-9, AROCLOR 1254 (30%), Method: PREINCUBATION inactive; negative | Test System: AMES SALMONELLA TYPHIMURIUM, Strain/Indicator: TA100, Metabolic Activation: NONE, Method: PREINCUBATION inactive; negative | Test System: AMES SALMONELLA TYPHIMURIUM, Strain/Indicator: TA100, Metabolic Activation: PLANT, HOMOGENATE, S-14, Method: STANDARD PLATE inactive; negative | Test System: AMES SALMONELLA TYPHIMURIUM, Strain/Indicator: TA100, Metabolic Activation: RAT, LIVER, S-9, AROCLOR 1254 (10%), Method: PREINCUBATION inactive; negative | Test System: AMES SALMONELLA TYPHIMURIUM, Strain/Indicator: TA100, Metabolic Activation: RAT, LIVER, S-9, AROCLOR 1254 (30%), Method: PREINCUBATION inactive; negative | Test System: AMES SALMONELLA TYPHIMURIUM, Strain/Indicator: TA100, Metabolic Activation: RAT, LIVER, S-9, AROCLOR 1254, Method: STANDARD PLATE inactive; negative | Test System: AMES SALMONELLA TYPHIMURIUM, Strain/Indicator: TA100, Metabolic Activation: RAT, LIVER, S-9, AROCLOR, Method: STANDARD PLATE inactive; negative | [2] inactive; negative | Test System: AMES SALMONELLA TYPHIMURIUM, Strain/Indicator: TA1535, Metabolic Activation: HAMSTER, LIVER, S-9, AROCLOR 1254 (10%), Method: PREINCUBATION inactive; negative | Test System: AMES SALMONELLA TYPHIMURIUM, Strain/Indicator: TA1535, Metabolic Activation: HAMSTER, LIVER, S-9, AROCLOR 1254 (30%), Method: PREINCUBATION inactive; negative | Test System: AMES SALMONELLA TYPHIMURIUM, Strain/Indicator: TA1535, Metabolic Activation: NONE, Method: PREINCUBATION inactive; negative | Test System: AMES SALMONELLA TYPHIMURIUM, Strain/Indicator: TA1535, Metabolic Activation: PLANT, HOMOGENATE, S-14, Method: STANDARD PLATE inactive; negative | Test System: AMES SALMONELLA TYPHIMURIUM, Strain/Indicator: TA1535, Metabolic Activation: RAT, LIVER, S-9, AROCLOR 1254 (10%), Method: PREINCUBATION inactive; negative | Test System: AMES SALMONELLA TYPHIMURIUM, Strain/Indicator: TA1535, Metabolic Activation: RAT, LIVER, S-9, AROCLOR 1254 (30%), Method: PREINCUBATION inactive; negative | Test System: AMES SALMONELLA TYPHIMURIUM, Strain/Indicator: TA1535, Metabolic Activation: RAT, LIVER, S-9, AROCLOR 1254, Method: STANDARD PLATE inactive; negative | Test System: AMES SALMONELLA TYPHIMURIUM, Strain/Indicator: TA1535, Metabolic Activation: RAT, LIVER, S-9, AROCLOR, Method: STANDARD PLATE inactive; negative | Test System: AMES SALMONELLA TYPHIMURIUM, Strain/Indicator: TA1535, Metabolic Activation: S-9, Method: STANDARD PLATE inactive; negative | Test System: AMES SALMONELLA TYPHIMURIUM, Strain/Indicator: TA1537, Metabolic Activation: HAMSTER, LIVER, S-9, AROCLOR 1254 (10%), Method: PREINCUBATION inactive; negative | Test System: AMES SALMONELLA TYPHIMURIUM, Strain/Indicator: TA1537, Metabolic Activation: HAMSTER, LIVER, S-9, AROCLOR 1254 (30%), Method: PREINCUBATION inactive; negative | Test System: AMES SALMONELLA TYPHIMURIUM, Strain/Indicator: TA1537, Metabolic Activation: NONE, Method: PREINCUBATION inactive; negative | Test System: AMES SALMONELLA TYPHIMURIUM, Strain/Indicator: TA1537, Metabolic Activation: NONE, Method: STANDARD PLATE inactive; negative | Test System: AMES SALMONELLA TYPHIMURIUM, Strain/Indicator: TA1537, Metabolic Activation: RAT, LIVER, S-9, AROCLOR 1254 (10%), Method: PREINCUBATION inactive; negative | Test System: AMES SALMONELLA TYPHIMURIUM, Strain/Indicator: TA1537, Metabolic Activation: RAT, LIVER, S-9, AROCLOR 1254 (30%), Method: PREINCUBATION inactive; negative | Test System: AMES SALMONELLA TYPHIMURIUM, Strain/Indicator: TA1537, Metabolic Activation: RAT, LIVER, S-9, AROCLOR 1254, Method: STANDARD PLATE inactive; negative | Test System: AMES SALMONELLA TYPHIMURIUM, Strain/Indicator: TA1537, Metabolic Activation: RAT, LIVER, S-9, AROCLOR, Method: STANDARD PLATE inactive; negative
active: End Point: IN VIVO CHROMOSOMAL ABERRATIONS, Test System: BONE MARROW CELLS, Species: MOUSE, Strain/Sex: SWISS/MALE, Route: DIET (ORAL) active; positive at all dose levels (structural and ploidy changes, robertsonian translo | Test System: E. COLI, Strain/Indicator: WP2 UVRA, Metabolic Activation: NONE, Method: FLUCTUATION active; positive

O=[N+]([O-])c1ccc(/C=C/c2ccc([N+](=O)[O-])cc2)cc1
inactive: Test System: AMES SALMONELLA TYPHIMURIUM, Strain/Indicator: TA98 (NR), Metabolic Activation: S-9, Method: STANDARD PLATE inactive; negative | Test System: AMES SALMONELLA TYPHIMURIUM, Strain/Indicator: TA100 (NR), Metabolic Activation: NONE, Method: STANDARD PLATE inactive; negative | Test System: AMES SALMONELLA TYPHIMURIUM, Strain/Indicator: TA100 (NR), Metabolic Activation: S-9, Method: STANDARD PLATE inactive; negative
active: Test System: AMES SALMONELLA TYPHIMURIUM, Strain/Indicator: TA98 (NR), Metabolic Activation: NONE, Method: STANDARD PLATE active; positive | Test System: AMES SALMONELLA TYPHIMURIUM, Strain/Indicator: TA98, Metabolic Activation: NONE, Method: STANDARD PLATE active; positive | [1] active; positive | Test System: AMES SALMONELLA TYPHIMURIUM, Strain/Indicator: TA100, Metabolic Activation: NONE, Method: STANDARD PLATE active; positive | [2] active; positive

Source: PubChem BioAssay AID1259407 (Chemical Carcinogenesis Research Information System (CCRIS), 2018)
